# Patent publication US5955471A, “Tetrahydroisoquinolinealkanol derivatives and pharmaceutical compositions containing same” (SK Corporation, priority 1998, dated 1999)
# Columns and labels:
# [1] = test system: 5-HT-mediated head-twitch response; assay: Head-Twitch Test (5-HTP-induced head-twitch response in mice); format: in vivo; conditions: oral, vs control vehicle
# Description: The head-twitch response of mice is initiated by a variety of 5-HT mimetic drugs. The test was conducted in a manner similar to the procedure described by Heal, D. J., Philpot, J, O'Shaughnessy, K. M. and Davies, C. L.: The influence of central noradrenergic function on 5-HT-mediated head-twitch responses in mice: Possible implications for the actions of antidepressant drugs. Psychopharmacology 89: 414-420, 1986,
# The head-twitch consisted of a characteristic rotation of the head, neck and shoulders of the mice. The test drug or vehicle was given by oral gavage. Thirty minutes later all animals were pretreated with carbidopa (25 mg/kg ip). Fifteen minutes following carbidopa administration, the mice were injected with 100 mg/kg ip of L-5-hydroxytryptophan (5-HTP). The animals were then left for 30 minutes before measurement of the head-twitch response in the following 2-minute period. For calculation of percent (%) response increase, the difference in drug head twitch number versus the control vehicle head twitch number is divided by the control head twitch and multiplied by 100.
# MAO-A = MAO-A inhibiting activity in vitro, rat liver mitochondrial membranes; format: biochemical; conditions: 10 uM; 300 nM deprenyl to block MAO-B; 60 minutes preincubation, 37° C., pH 7.2; [14C] Serotonin
# Description: The MAO-A activities in vitro were measured using Rat liver mitochondrial membranes as the source of the enzyme, according to a modified method of S. Otsuka & Y. Kobayashi: A Radioisotopic Assay for Monoamine Oxidase Determinations in Human Plasma. Biochem. Pharmacol. 13: 995-1006 (1964)
# Rat liver mitochondrial membranes are preincubated with drug or vehicle, and subtype selective blocker (300 nM deprenyl to block the B type of MAO) for 60 minutes at 37° C. in 100 mM KPO4 (pH 7.2). [^14 C] Serotonin ([…]) is then added and incubated for 10 minutes. The reaction is stopped by the addition of 0.5 ml of 2M citric acid. Radioactive product is extracted into a toluene/ethyl acetate fluor and compared to control values by scintillation spectrophotometry in order to ascertain any interactions of test compounds with MAO-A.
# [2] = Behavior Despair (Forced Swimming) test in rats (po); format: in vivo; conditions: 60 mg/kg (po), 4-minute test period, vs control vehicle
# Description: (§1) Behavior Despair (Forced Swimming) test, a well known pharmacological screening method for depression, was conducted similary to the test described by Porsolt, R. D., Bertin, A and Jalfre, M.: Behavior despair in mice: A preliminary screening test for antidepressants. Arch. Int. Pharmacodyn. Ther. 229: 327-336, 1977.
# Rats were pre-swam for 10 minutes the day before the test in 4000 mL glass cylinders containing water at 25° C. On the following day, rats were dosed orally (po) with either test compound or vehicle. One hour later each animal was placed in a glass cylinder and, following a 2-minute pretest, immobility was recorded for a 4-minute test period. For calculation of percent (%) reduction in immobility time, the difference in immobility time for control vehicle versus the drug is divided by the immobility time of the control vehicle and multiplied by 100.
# [3] = Behavior Despair (Forced Swimming) test in mice (ip); format: in vivo; conditions: 30 mg/kg (ip), 15-minute test period, vs control vehicle
# Description: as §1
# Mice were dosed intraperitoneally (ip) with either test compound or vehicle. One hour later each animal was placed in a 1500 mL glass beaker containing water at room temperature. Mice were kept in the water for a period of 15 minutes and the duration of immobility observed within the 15-minute test period was recorded. A mouse was judged to be immobile if it floated motionlessly in the water making only those movements necessary to keep its head above the water. For calculation of percent (%) reduction in immobility time, the difference in immobility time for control vehicle versus the drug is divided by the immobility time of the control vehicle and multiplied by 100.
compound,measurement,setting,value
"CN1Cc2ccccc2C[C@H]1COC(N)=O [Example 8, (S)-3-Carbamoyloxymethyl-N-methyl-1,2,3,4-tetrahydroisoquinoline]",% Response Increase,[1]; 1 mg/kg,77%
"NC(=O)OC[C@@H]1Cc2ccccc2CN1 [Example 3, (S)-3-Carbamoyloxymethyl-1,2,3,4-tetrahydroisoquinoline]",% Response Increase,[1]; 1 mg/kg,238%
same,% Inhibition (MAO-A),MAO-A,97.7%
same,% Reduction (immobility time),[2],83%
"NC(=O)OC[C@H]1Cc2ccccc2CN1 [Example 4, (R)-3-Carbamoyloxymethyl-1,2,3,4-tetrahydroisoquinoline]",% Response Increase,[1]; 15 mg/kg,258%
same,% Inhibition (MAO-A),MAO-A,63.9%
"CNC(=S)OC[C@@H]1Cc2ccccc2CN1C(=O)Nc1ccccc1 [Example 17, (S)-3-(N-Methyl-thiocarbamoyloxymethyl)-N-(anilinocarbonyl)-1,2,3,4-tetrahydroisoquinoline]",% Reduction (immobility time),[3],46%
CNC(=S)OC[C@@H]1Cc2ccccc2CN1C [Example 18],% Reduction (immobility time),[3],33%
"NC(=S)OCC1Cc2ccccc2CN1 (centres unmarked) [Example 14, 3-Thiocarbamoyloxymethyl-1,2,3,4-tetrahydroisoquinoline]",% Response Increase,[1]; 8 mg/kg,42%
"CNC(=S)OC[C@@H]1Cc2ccccc2CN1 [Example 16, (S)-3-(N-Methylthiocarbamoyloxymethyl)-1,2,3,4-tetrahydroisoquinoline]",% Reduction (immobility time),[3],56%
"NC(=O)OC[C@@H]1Cc2ccccc2CN1 [Example 5, (S)-3-Carbamoyloxymethyl-1,2,3,4-tetrahydroisoquinoline]",% Response Increase,[1]; 3 mg/kg,144%
